Data taken from ChEMBL document CHEMBL1201862, “PubChem BioAssay data set” (2004).
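Assay format: 96-well plates, 48-hour exposure. Here, GI50 denotes the concentration required for 50% inhibition of growth.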 Calls of active or inactive are those of the source. Cut-off read from the data, not from the text of the source: active = GI50 up to about 1.1 µM and inactive = higher.

How the values were obtained:
Assay in all cases: NCI anticancer screen, dose series, 48 h
OVCAR-8 = system: OVCAR-8
SW-620 = system: SW-620
NCI-H522 = system: NCI-H522
ACHN = system: ACHN
EKVX = system: EKVX
M14 = system: M14
HCC 2998 = system: HCC 2998
IGROV-1 = system: IGROV-1
NCI-H460 = system: NCI-H460
HCT-15 = system: HCT-15
KM12 = system: KM12
SK-OV-3 = system: SK-OV-3
SNB-75 = system: SNB-75
HL-60 = system: HL-60
SK-MEL-2 = system: SK-MEL-2
RPMI-8226 = system: RPMI-8226
K562 = system: K562
A498 = system: A498

Row | SMILES | GI50 (OVCAR-8) | GI50 (SW-620) | GI50 (NCI-H522) | GI50 (ACHN) | GI50 (EKVX) | GI50 (M14) | GI50 (HCC 2998) | GI50 (IGROV-1) | GI50 (NCI-H460) | GI50 (HCT-15) [µM] | GI50 (KM12) | GI50 (SK-OV-3) | GI50 (SNB-75) | GI50 (HL-60) | GI50 (SK-MEL-2) | GI50 (RPMI-8226) | GI50 (K562) | GI50 (A498)
1 | COC(=O)C(C(=O)Cc1ccccc1[N+](=O)[O-])C(=O)OC | > 100 µM (inactive) | > 100 µM (inactive) | > 100 µM (inactive) | > 100 µM (inactive) | > 100 µM (inactive) | > 100 µM (inactive) | > 100 µM (inactive) | > 100 µM (inactive) | > 100 µM (inactive) | > 100 | > 100 µM (inactive) | > 100 µM (inactive) | > 100 µM (inactive) | 54.5 µM (inactive) | > 100 µM (inactive) | – | – | –
2 | CN(C)CC1CCC(CN(C)C)C1=NO (stereo unspecified) | > 100 µM (inactive) | > 100 µM (inactive) | > 100 µM (inactive) | > 100 µM (inactive) | > 100 µM (inactive) | > 100 µM (inactive) | > 100 µM (inactive) | > 100 µM (inactive) | > 10 µM (inactive) | > 100 | – | – | > 10 µM (inactive) | – | – | > 100 µM (inactive) | > 100 µM (inactive) | –
3 | COC(=O)[C@]12CCC(C)[C@H](C)[C@H]1C1=CCC3[C@@]4(C)CC[C@H](OC(C)=O)C(C)(C)C4CC[C@@]3(C)C1(C)C(O)C2 (stereo partly specified) | > 100 µM (inactive) | > 100 µM (inactive) | > 100 µM (inactive) | > 100 µM (inactive) | > 100 µM (inactive) | > 100 µM (inactive) | > 100 µM (inactive) | > 100 µM (inactive) | > 100 µM (inactive) | – | > 100 µM (inactive) | > 100 µM (inactive) | 45.2 µM (inactive) | – | > 100 µM (inactive) | 53.7 µM (inactive) | 89.1 µM (inactive) | > 100 µM (inactive)
4 | CCOC(=O)C1(C(=O)OCC)C(C(C)(C)C)=C(C)c2ccccc21 | 20.6 µM (inactive) | 15.3 µM (inactive) | 10.1 µM (inactive) | 13.2 µM (inactive) | 20.1 µM (inactive) | 16.1 µM (inactive) | 16 µM (inactive) | 14.5 µM (inactive) | 11.9 µM (inactive) | 13.7 | 12.6 µM (inactive) | 24.2 µM (inactive) | 19.3 µM (inactive) | 9.93 µM (inactive) | 18.5 µM (inactive) | 7.89 µM (inactive) | 8.55 µM (inactive) | –
5 | O=c1[nH]cnc2c(COCCO)c[nH]c12 | > 100 µM (inactive) | > 100 µM (inactive) | > 100 µM (inactive) | > 100 µM (inactive) | > 100 µM (inactive) | > 100 µM (inactive) | – | > 100 µM (inactive) | > 100 µM (inactive) | > 100 | > 100 µM (inactive) | > 100 µM (inactive) | > 100 µM (inactive) | > 100 µM (inactive) | > 100 µM (inactive) | > 100 µM (inactive) | > 100 µM (inactive) | > 100 µM (inactive)
6 | COC(=O)C(=O)C(C(=O)C(=O)Nc1cc(C)ccc1C)c1nc2ccc(C(=O)c3ccccc3)cc2nc1O (stereo unspecified) | > 100 µM (inactive) | > 100 µM (inactive) | 36.3 µM (inactive) | > 100 µM (inactive) | > 100 µM (inactive) | > 100 µM (inactive) | > 100 µM (inactive) | > 100 µM (inactive) | – | > 100 | 71.4 µM (inactive) | – | – | – | > 100 µM (inactive) | 94.2 µM (inactive) | 31 µM (inactive) | –
7 | O=C1c2ccccc2C(=O)c2[nH]c(Cc3ccc(F)cc3)nc21 | 17.4 µM (inactive) | 14.5 µM (inactive) | 14.5 µM (inactive) | 14.2 µM (inactive) | 19.2 µM (inactive) | 15.3 µM (inactive) | 26.2 µM (inactive) | 12.5 µM (inactive) | 15.2 µM (inactive) | 6.44 | 16.2 µM (inactive) | – | 20.9 µM (inactive) | 17.9 µM (inactive) | 13.9 µM (inactive) | 22.8 µM (inactive) | 37.2 µM (inactive) | –
8 | O=C(Nc1cc(Cl)cc(Cl)c1)/C(Cc1nc2ccccc2nc1O)=N/NC(=O)c1ccncc1 | > 100 µM (inactive) | > 100 µM (inactive) | – | > 100 µM (inactive) | > 100 µM (inactive) | > 100 µM (inactive) | > 100 µM (inactive) | > 100 µM (inactive) | > 100 µM (inactive) | > 100 | > 100 µM (inactive) | > 100 µM (inactive) | – | > 100 µM (inactive) | > 100 µM (inactive) | > 100 µM (inactive) | > 100 µM (inactive) | > 100 µM (inactive)
9 | CCOC(=O)c1c2ccc(/C=C/C(=O)OC)ccc-2c(C(=O)OCC)c1N | – | > 100 µM (inactive) | > 100 µM (inactive) | > 100 µM (inactive) | > 100 µM (inactive) | > 100 µM (inactive) | > 100 µM (inactive) | > 100 µM (inactive) | > 100 µM (inactive) | > 100 | > 100 µM (inactive) | > 100 µM (inactive) | > 100 µM (inactive) | > 100 µM (inactive) | > 100 µM (inactive) | – | > 100 µM (inactive) | 6.52 µM (inactive)
10 | N#CC(C(=O)/C(=N/NC(=O)c1ccccc1O)C(C#N)c1ccccc1)c1ccccc1 (stereo unspecified) | > 100 µM (inactive) | – | – | > 100 µM (inactive) | > 100 µM (inactive) | > 100 µM (inactive) | > 100 µM (inactive) | > 100 µM (inactive) | > 100 µM (inactive) | > 100 | > 100 µM (inactive) | > 100 µM (inactive) | > 100 µM (inactive) | – | > 100 µM (inactive) | > 100 µM (inactive) | – | > 100 µM (inactive)
11 | CC(C)N1CCOC(c2ccc(O)c(O)c2)C1 (stereo unspecified) | > 100 µM (inactive) | > 100 µM (inactive) | > 100 µM (inactive) | > 100 µM (inactive) | > 100 µM (inactive) | > 100 µM (inactive) | > 100 µM (inactive) | > 100 µM (inactive) | > 100 µM (inactive) | > 100 | > 100 µM (inactive) | > 100 µM (inactive) | > 100 µM (inactive) | > 100 µM (inactive) | > 100 µM (inactive) | > 100 µM (inactive) | > 100 µM (inactive) | –
12 | COC(=O)C1=CC2C(=O)OC1CC2C#N (stereo unspecified) | > 100 µM (inactive) | > 100 µM (inactive) | > 100 µM (inactive) | > 100 µM (inactive) | – | > 100 µM (inactive) | > 100 µM (inactive) | > 100 µM (inactive) | > 100 µM (inactive) | – | > 100 µM (inactive) | > 100 µM (inactive) | > 100 µM (inactive) | > 100 µM (inactive) | – | > 100 µM (inactive) | > 100 µM (inactive) | > 100 µM (inactive)
13 | Nc1ccc2ncc(NCc3ccc(F)cc3)nc2c1 | 90.4 µM (inactive) | > 100 µM (inactive) | 83.2 µM (inactive) | 64.9 µM (inactive) | 62.7 µM (inactive) | > 100 µM (inactive) | > 100 µM (inactive) | – | 74.6 µM (inactive) | > 100 | > 100 µM (inactive) | 85.9 µM (inactive) | 25.4 µM (inactive) | 95.9 µM (inactive) | > 100 µM (inactive) | 62.2 µM (inactive) | 87.9 µM (inactive) | –
